Results: patent US10227345B2, “Compounds and methods for inhibiting fascin” (Cornell University, priority 2014, dated 2019)

Molecular target: T1, human fascin 1 (Homo sapiens, UniProt Q16658)
T1 construct: GST (N, cleaved yes); made in house; host or cells: Escherichia coli BL21/DE3 (pGEX4T-fascin 1 plasmid)
Test: Fascin inhibition (actin bundling) assay, image-based
Format: biochemical
Details: in the presence of 50 μm of the compound relative to bundle activity when the compound was not present; read-out: Inhibition (percentage reduction of bundle activity)
Procedure: Recombinant human fascin 1 was expressed as a GST fusion protein in BL21 Escherichia coli. One liter of 2YT medium with ampicillin was inoculated overnight with 3 mL of BL21/DE3 culture transformed with pGEX4T-fascin 1 plasmid and grown at 37° C. until attenuance at 600 nm (D600) reached about 0.8. The culture was then transferred to 18° C. and induced by the addition of 0.1 mM isopropyl β-d-thiogalactoside (IPTG) for 12 h. Bacteria were harvested by centrifugation at 5,000 r.p.m. for 10 min. The pellets were suspended in 30 mL of PBS supplemented with 0.2 mM PMSF, 1 mM DTT, 1% (v/v) Triton X-100 and 1 mM EDTA. After sonication, the suspension was centrifuged at 15,000 r.p.m. for 30 min to remove the cell debris. The supernatant was then incubated for 2 h with 4 mL of glutathione beads (Sigma) at 4° C. After extensive washing with PBS, the beads were resuspended in 10 mL of thrombin cleavage buffer (20 mM Tris-HCl pH 8.0, 150 mM NaCl, 2 mM CaCl2, 1 mM DTT). Fascin was released from the beads by incubation overnight with 40-100 U of thrombin at 4° C. After centrifugation, 0.2 mM PMSF was added to the supernatant to inactivate the remnant thrombin activity. The fascin protein was further concentrated with a Centricon® (Boca Raton, Fla.) filter to about 50 mg/mL.
Representative compounds described herein were tested for fascin inhibition activity. Purified fascin protein (15 μL of 0.5 μM) in buffer (100 mM KCl, 20 mM Tris/HCl, pH 7.5, 2 mM MgCl2) was added into each well of a clear 384-well flat-bottom plate (Corning) using Thermo Multidrop Combi (Fisher). Compound solutions (5 mM stock, 180 nL) were pin transferred from stock 384-well plates into the 384-well assay plates and incubated for 30 min. Then 15 μL of 0.5 μM polymerized actin (in 100 mM KCl, 20 mM Tris/HCl, pH 7.5, 2 mM MgCl2, 1 mM DTT, 1 mM ATP) (Cytoskeleton Inc.) was added, resulting in 30 μM final concentration for chemical compounds. […] Mixed solution (25 μL) was then transferred to one well in a black 384-well plate coated with poly-D-lysine, and stained actin bundles or F-actin would stick onto the poly-D-lysine plates. After the plates were thoroughly washed with 1×PBS for 3 times, the plate was imaged using an ImageXpress Micro High Content Screening System (Molecular devices). The images were processed and analyzed using MetaMorph software. The raw image data for each well was background-corrected by subtraction of the median intensities across all wells on the plate. The background-corrected data was used to compute the bundle length for each well. The negative control wells were employed for quality control: multiple DMSO-only control wells (16 wells/plate) were present on each assay plate.

Compound	inhibition at 50 µM [%]
O=C(Nc1nn(Cc2ccc(C(F)(F)F)cc2)c2cccc(Cl)c12)c1ccoc1 [Compound 117, N-(4-chloro-1-(4-(trifluoromethyl)benzyl)-1H-indazol-3-yl)furan-3-carboxamide]	< 10
Nc1nn(Cc2ccc(F)cc2)c2ccccc12 [Compound 70, 1-(4-fluorobenzyl)-1H-indazol-3-amine]	< 10
O=C(Nc1nn(Cc2ccc(C(F)(F)F)cc2)c2cc(C(F)(F)F)ccc12)c1ccoc1 [Compound 107, N-(6-(trifluoromethyl)-1-(4-(trifluoromethyl)benzyl)-1H-indazol-3-yl)furan-3-carboxamide]	< 10
O=C(Nc1nn(Cc2ccc(C(F)(F)F)cc2)c2ccccc12)c1ccc(F)c(F)c1 [Compound 19, 3,4-difluoro-N-(1-(4-(trifluoromethyl)benzyl)-1H-indazol-3-yl)benzamide]	< 10
O=C(Nc1nn(Cc2ccc(C(F)(F)F)cc2)c2ccccc12)c1cccs1 [Compound 9, N-(1-(4-(trifluoromethyl)benzyl)-1H-indazol-3-yl)thiophene-2-carboxamide]	60
O=C(Nc1nn(Cc2ccc(C(F)(F)F)cc2)c2ccccc12)c1cccnc1 [Compound 54, N-(1-(4-(trifluoromethyl)benzyl)-1H-indazol-3-yl)nicotinamide]	< 10
N#Cc1ccc(Cn2nc(NC(=O)c3ccoc3)c3ccccc32)cc1 [Compound 85, N-(1-(4-cyanobenzyl)-1H-indazol-3-yl)furan-3-carboxamide]	< 10
Cc1ccc2c(NC(=O)c3ccoc3)nn(Cc3ccc(C(F)(F)F)cc3)c2n1 [Compound 132, N-(6-methyl-1-(4-(trifluoromethyl)benzyl)-1H-pyrazolo[3,4-b]pyridin-3-yl)furan-3-carboxamide]	< 10
O=C(Nc1nn(Cc2ccc(C(F)(F)F)cc2)c2ccccc12)c1cc2ccccc2o1 [Compound 2, N-(1-(4-(trifluoromethyl)benzyl)-1H-indazol-3-yl)benzofuran-2-carboxamide]	< 10
Cc1ncsc1C(=O)Nc1nn(Cc2ccc(C(F)(F)F)cc2)c2cncc(Cl)c12 [Compound 138, N-(4-chloro-1-(4-(trifluoromethyl)benzyl)-1H-pyrazolo[3,4-c]pyridin-3-yl)-4-methylthiazole-5-carboxamide]	90
Cc1nocc1C(=O)Nc1nn(Cc2ccc(C(F)(F)F)nc2)c2ccc(C#N)cc12 [Compound 99, N-(5-cyano-1-((6-(trifluoromethyl)pyridin-3-yl)methyl)-1H-indazol-3-yl)-3-methylisoxazole-4-carboxamide]	< 10
O=C(Nc1nn(Cc2ccc(C(F)(F)F)cc2)c2ccccc12)c1cccc(F)c1F [Compound 20, 2,3-difluoro-N-(1-(4-(trifluoromethyl)benzyl)-1H-indazol-3-yl)benzamide]	< 10
Cc1ncsc1C(=O)Nc1nn(Cc2ccc(C(F)(F)F)nc2)c2ccccc12 [Compound 95, 4-methyl-N-(1-((6-(trifluoromethyl)pyridin-3-yl)methyl)-1H-indazol-3-yl)thiazole-5-carboxamide]	< 10
Cc1ncsc1C(=O)Nc1nn(Cc2ccc(C(F)(F)F)cc2)c2c(C(F)(F)F)cccc12 [Compound 115, 4-methyl-N-(7-(trifluoromethyl)-1-(4-(trifluoromethyl)benzyl)-1H-indazol-3-yl)thiazole-5-carboxamide]	< 10
O=C(Nc1nn(Cc2ccc(C(F)(F)F)nc2)c2ccc(C(F)(F)F)cc12)c1cccnn1 [Compound 127, N-(5-(trifluoromethyl)-1((6-(trifluoromethyl)pyridin-3-yl)methyl)-1H-indazol-3-yl)pyridazine-3-carboxamide]	< 10
Cc1cnoc1C(=O)Nc1nn(Cc2ccc(C(F)(F)F)cc2)c2ccccc12 [Compound 28, 4-methyl-N-(1-(4-(trifluoromethyl)benzyl)-1H-indazol-3-yl)isoxazole-5-carboxamide]	80
